Literature values, collected in patent US20080286234A1, “Method for treating demyelinating diseases” (priority 2007, published 2008).

Details: MS patients; for reduction in the rate of MS relapses / decrease in relapse rate: vs. placebo

In the case of glatiramer acetate, the “effect on exacerbations in clinical trials” value (clinical trials) is given as “reduce the number and severity of exacerbations”, the “effect on new, gadolinium-enhanced brain lesions on MRI scans” value (clinical trials) is given as “reduce the number of new, gadolinium-enhanced brain lesions” and the “reduction in the rate of MS relapses / decrease in relapse rate” value is given as 30-35%.

In the case of “natalizumab: monoclonal antibody against integrin-(4 used to treat multiple sclerosis and Crohn's disease”, the “slowed the progression of disability (as measured by EDSS)” value is listed as 42% and the “reduction in the rate of MS relapses / decrease in relapse rate” value is listed as 67%.
